Laboratory results from patent US10888520B2, “Coated particle and method for producing coated particle” (KOBE GAKUIN EDUCATIONAL FOUNDATION, priority 2010, dated 2021).

Test: Elution test, JP XV paddle method
Type: physicochemical
Conditions: paddle 100 rpm, 900 ml pure water, 37° C.
Experimental: The coating particles obtained in Examples 1 to 3 and the acetaminophen bulk powder were subjected to an elution test.
The elution test was carried out under the conditions of the number of revolutions of paddle: 100 rpm, 900 ml pure water and 37° C., in accordance with JP XV paddle method. Elution concentration of acetaminophen was obtained from an absorbance (285 nm).

elution concentration of acetaminophen (after 0.5 minute): 90% | elution concentration of acetaminophen (after (about) 1 minute): 100%
SMILES: CC(=O)Nc1ccc(O)cc1 [acetaminophen bulk powder, acetaminophen]
